# Measurements as given in patent publication US7138238B2, “Ligand sensor devices and uses thereof” (priority 2001, dated 2006).
# Read-outs that look alike come from different tables or passages of the source. Primed or numbered codes have the meaning given here. Ends that are not written are not given here. Biotin′ = not defined here
# Columns and labels:
# [1] = test system: murine kidney homogenate; test: Ligand sensor device selectivity assay, murine kidney homogenate; type: binding, mouse
# Protocol: (§1) Identification of a peptide of interest. Mice were euthanized with carbon dioxide gas and cats were euthanized with an overdose of pentobarbital administered intravenously (the use of animals was approved by the Auburn University Animal Care and Use Committee). After death, animals were perfused with ice-cold Phosphate Buffered Saline (PBS). Samples of mouse and cat skeletal muscle, mouse kidney, liver and brain were harvested. Tissue aliquots (200 mg) were homogenized in 4 ml PBS using a manual homogenizer. Immediately after homogenization samples were microcentrifuged for 10 min at 3,000 rpm, and the supernatants containing tissue vesicles were separated from the pellets. […] Vesicle concentration and integrity were examined by dark-field microscopy (Vodyanoy et al. (1994) Langmuir 10: 1354–1357). Dilutions of tissue samples were prepared in PBS as follows: 1:5, 1:25, 1:125, and 1:625. To perform the blocking experiment, free ASSLNIA peptide (1 mg/ml) synthesized by Research Genetics, Inc. (Huntsville, Ala., USA) was added to the murine skeletal muscle tissue homogenate (50 mg/ml) and incubated at room temperature for 1 hour with agitation. Protein concentration in tissue samples was determined using Bio-Rad® Protein Assay Kit (Bio-Rad Laboratories, Hercules, Calif., USA).
# (§2) Coupling the peptide of interest to the sensor. The sensor, prepared as described above by the addition of a Langmuir-Blodgett film of biotinylated lipid, was then coupled to the peptide of interest by molecular assembly with streptavidin. Streptavidin was diluted to a final concentration of 0.01 mg/ml in the subphase solution and exposed to the LB film for 2 hours; the film was then rinsed with distilled water and dried for 2 min in ambient air. […] If necessary, this preparation step could be followed by a blocking step with a biotin solution. In this manner, the peptide of interest was coupled with the phospholipid via molecular assembly with streptavidin (see FIG. 1), thereby coupling the peptide of interest to the sensor to create the ligand sensor device (LSD). Each LSD was placed in an individual Petri dish and stored no longer than 24 hours at 4° C. until affinity assays were performed.
# Quantifying the signal output from the ligand sensor device (LSD). Measurements were carried out using a PM-740 Maxtek plating monitor with a frequency resolution of 0.5 Hz at 5 MHz. The voltage output from the Maxtek device is directly related to the resonance frequency of the quartz crystal sensor. Changes in the resonance frequency of the quartz crystal sensor were used to monitor the binding of homogenate vesicles to the sensor surface.
# To evaluate the affinity of a ligand, the LSD was positioned in the probe arm of the instrument just before delivery of samples. Immediately after recording was started, 1000 μl phosphate buffered saline (PBS) was delivered with a pipette to the dry sensor surface and voltage was recorded for 4–8 minutes. The PBS was then removed carefully with a plastic pipette tip and a new recording was initiated. Tissue homogenates of different dilutions were added sequentially to the sensor and the same measuring procedure was followed after each addition. Each experiment was replicated 2–4 times, and the temperature of all samples was 25° C. Voltage output of the LSD was recorded and records were analyzed offline.
# Binding selectivity of the Ligand Sensor Device.
# [2] = target: murine skeletal muscle homogenates; test: Ligand sensor device (acoustic wave sensor) binding assay, murine muscle homogenate; design: species or system mouse; conditions: for Kd: read-out: apparent dissociation constant Kd
# Protocol: as §1, with “USA). […]” for “USA).”
# (§3) Preparation of the sensor. AT-cut planar quartz crystal sensors with a 5 MHz nominal oscillating frequency were purchased from Maxtek, Inc. Circular gold electrodes were deposited on both sides of the crystal sensor for the electrical connection to the oscillatory circuit. The sensor was prepared to be coupled to the peptide by the addition of a Langmuir-Blodgett film of biotinylated lipid. Lipid monolayer depositions were carried out using a Langmuir-Blodgett (LB) film balance KSV 2200 LB (KSV-Chemicals, Finland). This fully computerized system includes a Wilhelmy-type surface balance (range 0–100 mN/m; sensitivity 0.05 mN/m), a Teflon trough (45×15 cm^2), a variable speed motor-driven Teflon barrier (0–200 mm/min), and a laminar flow hood. The trough was mounted on a 200 kg marble table. Vibration control was provided by interposing rubber shock absorbers and by mounting the laminar flow hood on a separate bench. Surface pressure was monitored by use of a sandblasted platinum plate of 4-cm perimeter. The temperature of the aqueous subphase (20° C. ±0.1° C.) was controlled by water circulation through a quartz tube coil on the bottom of the trough. The temperature of the aqueous subphase was measured by a thermistor located just below the air/liquid interface.
# Monolayers were transferred onto the gold surface of an acoustic wave sensor using the Langmuir-Blodgett technique. Lipid solutions were spread on the aqueous subphase as hexane solutions (1 mg/ml) containing 2% ethanol (Ito et al. (1989) Thin Solid Films 180: 1–13). The lipid solutions contained phospholipid (N (biotinoyl)-1,2-dihexadecanoyl-SN-glycero-3-phosphoethanolamine). The aqueous subphase was a solution containing 55 mM KCl, 4 mM NaCl, 0.1 mM CaCl2, 1 mM MgCl2 and 2 mM 3-(N-morpholino)-propanesulfonic acid (MOPS) made with deionized double distilled water (pH 7.4). After spreading, the monolayer was allowed to equilibrate and stabilize for 10 min at 19° C.
# [3] = test system: feline skeletal muscle homogenate; test: Ligand sensor device binding assay, feline muscle homogenate; design: species or system cat
# Protocol: as §1
# A 7-mer phage display peptide library (New England Biolabs, Inc., Beverly, Mass., USA) was screened as described in Samoylova and Smith (1999) Muscle & Nerve 22: 460–466.
# as §3, with “interface. […]” for “interface.”
# [4] = test system: murine liver homogenate; test: Ligand sensor device selectivity assay, murine liver homogenate; type: binding, mouse
# Protocol: as §1, §2
# (§4) Quantifying the signal output from the ligand sensor device (LSD). Measurements were carried out using a PM-740 Maxtek plating monitor with a frequency resolution of 0.5 Hz at 5 MHz. […]
# (§5) To evaluate the affinity of a ligand, the LSD was positioned in the probe arm of the instrument just before delivery of samples. Immediately after recording was started, 1000 μl phosphate buffered saline (PBS) was delivered with a pipette to the dry sensor surface and voltage was recorded for 4–8 minutes. […] Voltage output of the LSD was recorded and records were analyzed offline. […]
# [5] = test system: murine brain homogenate; test: Ligand sensor device selectivity assay, murine brain homogenate; type: binding, mouse
# Protocol: as §1, §2, §4, §5
# [6] = Table 1, blocked muscle: homogenate (50 mg/ml) incubated with free peptide (1 mg/ml) 1 hour at room temperature
# [7] = Table 2, murine muscle homogenate
# [8] = Table 2, feline muscle homogenate
substance,measurement,setting,value
7-mer peptide selected in vivo for murine myofibers by phage display; coupled to the sensor as ASSLNIAGGGSK-Biotin (SEQ ID NO:3) (ASSLNIAGGGSK-{Biotin′}; also: coupled to the sensor),kidney homogenate needed to induce same response as 0.01 mg/ml muscle homogenate,[1],more than 100 mg/ml
same,"sensitivity (S), slope of dose response","[1]; Table 3, murine kidney",41.8 ± 7.0 V/decade
same,"selective preference for ligand(s) in muscle over kidney homogenates, factor",[1]; at 0.01 mg/ml muscle homogenate,"more than 10,000"
same,sensor response,[1]; murine kidney preparation,insignificant responses
same,"Selectivity coefficient, K","[1]; murine kidney, K = Stissue/Smuscle",(3.1 ± 1.0) × 10^−1 relative units
same,apparent dissociation constant Kd,[2]; [6],0.32 ± 0.05 mg/mL
same,apparent maximal surface concentration of protein Mmax,[2]; [6],34.4 ± 3.0 ng/cm^2
same,apparent dissociation constant Kd,"[2]; Table 1, murine muscle homogenate, calculated from Hill plots",0.28 mg/mL
same,apparent maximal surface concentration of protein Mmax,"[2]; Table 1, murine muscle homogenate, estimated from increase of sensor voltage",54.0 ± 4.0 ng/cm^2
same,Mmax,[2]; [7],50.5 ± 3.0 ng/cm^2
same,apparent dissociation constant Kd,[2]; [7],0.32 ± 0.05 mg/mL
same,Hill coefficient,"[2]; Table 2, murine muscle homogenate, equation 2",0.92 ± 0.04
same,"sensitivity (S), slope of dose response","[2]; Table 3, murine muscle",134 ± 20.0 V/decade
same,"apparent dissociation constant, level",[2]; assuming only a fraction of molecules on vesicle surface bind the peptide,subnanomolar level
same,Kd,[2]; corrected for target molecules being ~0.5% of vesicle mass,5 to 10 nM
same,"Selectivity coefficient, K","[2]; murine muscle (reference), K = Stissue/Smuscle",1.0 relative units
same,"Activity ratio, R","[2]; murine muscle (reference), protein concentration 0.01 mg/ml",1.0 relative units
same,time to approach steady-state signal output τ2,"[2]; murine muscle homogenate, each concentration, FIG. 2",70 ± 20 s
same,initial delay in signal output response τ1,"[2]; murine muscle homogenate, independent of concentration, FIG. 2",8 ± 1 s
same,sensor response,[2]; murine muscle homogenates,strong response
same,protein concentration at which signal was saturated,"[2]; murine muscle homogenates, FIG. 3",about 5.0 mg/ml
same,sensor signal after blocking,[2]; preincubation of muscle homogenates with free peptide,significantly reduced signal
same,Kd,[2]; speculating target molecule of about 75–150 kD,1000 to 2000 nM
same,Mmax,[3]; [8],32.8 ± 2.0 ng/cm^2
same,apparent dissociation constant Kd,[3]; [8],0.37 ± 0.05 mg/mL
same,Hill coefficient,"[3]; Table 2, feline muscle homogenate, equation 2",0.93 ± 0.04
same,sensor response,"[3]; feline muscle homogenates, compared to murine muscle","appreciable, but lower responses"
same,"sensitivity (S), slope of dose response","[4]; Table 3, murine liver",67.3 ± 6.0 V/decade
same,sensor response,[4]; murine liver preparation,insignificant responses
same,"Selectivity coefficient, K","[4]; murine liver, K = Stissue/Smuscle",(5.0 ± 1.5) × 10^−1 relative units
same,"Activity ratio, R","[4]; murine liver, R = ΔCmuscle/ΔCtissue at protein concentration 0.01 mg/ml",(1.1 ± 0.4) × 10^−3 relative units
same,"sensitivity (S), slope of dose response","[5]; Table 3, murine brain",62.5 ± 16 V/decade
same,sensor response,[5]; murine brain preparation,insignificant responses
same,"Selectivity coefficient, K","[5]; murine brain, K = Stissue/Smuscle",(4.6 ± 1.4) × 10^−1 relative units
same,"Activity ratio, R","[5]; murine brain, R = ΔCmuscle/ΔCtissue at protein concentration 0.01 mg/ml",(3.4 ± 1.1) × 10^−3 relative units
